From ChEMBL document CHEMBL4622910, “Design, synthesis and evaluation of pyrazolopyrimidinone derivatives as novel PDE9A inhibitors for treatment of Alzheimer's disease” (Bioorg Med Chem Lett, 2020)
≈ marks a conversion by molar mass, not a printed value.

Key:
[1] = Solubility of the compound in water; assay type: physicochemical
[2] = Half life in rat liver microsomes; assay type: ADME, Microsome
[3] = Hepatic clearance in rat liver microsomes; assay type: ADME, Microsome
[4] = Metabolic stability in rat liver microsomes; assay type: ADME, Microsome
Homo sapiens [5] = species on record: Homo sapiens; experiment: Selectivity for PDE1 (unknown origin) over PDE9 (unknown origin)
Homo sapiens [6] = species on record: Homo sapiens; experiment: Selectivity for PDE5 (unknown origin) over PDE9 (unknown origin)

| Structure (SMILES) | solubility [1] | t1/2 [2] | CLH [3] | also measured |
| --- | --- | --- | --- | --- |
| COc1ccc(NC(=O)[C@@H](C)Nc2nc3c(cnn3C3CCCC3)c(=O)[nH]2)cc1 | 0.04 µg/mL (≈ 0.101 µM) | 23.3 min | 65.8 mL/min/kg |  |
| C[C@@H](Nc1nc2c(cnn2C2CCCC2)c(=O)[nH]1)C(=O)Nc1ccc2[nH]cnc2c1 | 195 µg/mL (≈ 480 µM) | 57 min | 9.07 mL/min/kg | Stability [4]: 54.7% |
| C[C@@H](Nc1nc2c(cnn2C2CCCC2)c(=O)[nH]1)C(=O)Nc1ccc2c(c1)CNC2=O | 0.1 µg/mL (≈ 0.237 µM) |  |  |  |
| C[C@@H](Nc1nc2c(cnn2C2CCCC2)c(=O)[nH]1)C(=O)Nc1ccc2nccn2c1 | 74 µg/mL (≈ 182 µM) | 32.6 min | 11.8 mL/min/kg | Stability [4]: 40.8% |
| C[C@@H](Nc1nc2c(cnn2C2CCCC2)c(=O)[nH]1)C(=O)Nc1ccncc1 | 20 µg/mL (≈ 54.4 µM) |  |  |  |
| C[C@@H](Nc1nc2c(cnn2C2CCCC2)c(=O)[nH]1)C(=O)Nc1ccc2[nH]ncc2c1 | 103 µg/mL (≈ 253 µM) | 43.4 min | 10 mL/min/kg | Stability [4]: 47.8% |
| C[C@@H](Nc1nc2c(cnn2C2CCCC2)c(=O)[nH]1)C(=O)Nc1ccc2c(c1)COC2 | 0.03 µg/mL (≈ 0.0734 µM) |  |  |  |
| C[C@@H](Nc1nc2c(cnn2C2CCCC2)c(=O)[nH]1)C(=O)Nc1ccc(C(F)(F)F)cn1 | 6.3 µg/mL (≈ 14.5 µM) |  |  |  |
| C[C@@H](Nc1nc2c(cnn2C2CCCC2)c(=O)[nH]1)C(=O)Nc1ccc2c(c1)CCC2=O | 6 µg/mL (≈ 14.3 µM) |  |  |  |
| C[C@@H](Nc1nc2c(cnn2C2CCCC2)c(=O)[nH]1)C(=O)Nc1ccc(F)nc1 | 52 µg/mL (≈ 135 µM) | 32.8 min | 11.8 mL/min/kg | Stability [4]: 41% |
| C[C@@H](Nc1nc2c(cnn2C2CCCC2)c(=O)[nH]1)C(=O)Nc1nccs1 | 25 µg/mL (≈ 66.9 µM) |  |  |  |
| C[C@@H](Nc1nc2c(cnn2C2CCCC2)c(=O)[nH]1)C(=O)Nc1ccc(C(F)(F)F)nc1 | 5.1 µg/mL (≈ 11.7 µM) |  |  |  |
| CC(Nc1nc2c(cnn2C2CCCC2)c(=O)[nH]1)c1ccc(Cl)cc1 (stereo unspecified) |  |  |  | Selectivity ratio (Homo sapiens [5]): 46; Selectivity ratio (Homo sapiens [6]): 31 |
| C[C@@H](Nc1nc2c(cnn2C2CCCC2)c(=O)[nH]1)C(=O)Nc1ccc2[nH]ccc2c1 | 0.1 µg/mL (≈ 0.247 µM) |  |  |  |
| C[C@@H](Nc1nc2c(cnn2C2CCCC2)c(=O)[nH]1)C(=O)Nc1cnc(Cl)nc1 | 0.5 µg/mL (≈ 1.24 µM) |  |  |  |
| C[C@@H](Nc1nc2c(cnn2C2CCCC2)c(=O)[nH]1)C(=O)NC1=NCCS1 | 0.03 µg/mL (≈ 0.0799 µM) |  |  |  |
